Earlier results on two compounds are cited in patent EP0773217A1, “Benzothiphene derivatives for treating resistant tumors” (ELI LILLY AND COMPANY, priority 1995, dated 1997).

Converted amounts (≈) assume the structure as drawn.

Usually IC50 stands for the point on the concentration scale where inhibition reaches its midpoint.

Data set [1] relates to HL60/S cells. To be noted: no P-glycoprotein expression.
For data set [2], the system named is HL60/Adr cells. Conditions: HL60/Adr cells (resistant to doxorubicin, express p190, no P-glycoprotein).

For the compound `COc1cc([C@@H]2c3cc4c(cc3[C@@H](O[C@@H]3O[C@@H]5CO[C@@H](C)O[C@H]5[C@H](O)[C@H]3O)[C@H]3COC(=O)[C@H]23)OCO4)cc(OC)c1O` [ETOPOSIDE™, etoposide], the figures for the IC50 in data set [1] and in data set [2] were 0.39 µg/mL (≈ 0.663 µM) and greater than 10 µg/mL, respectively.

As for `COc1cccc2c1C(=O)c1c(O)c3c(c(O)c1C2=O)C[C@@](O)(C(=O)CO)C[C@@H]3O[C@H]1C[C@H](N)[C@H](O)[C@H](C)O1` [ADRIAMYCIN™, Doxorubicin], the values for the IC50 in data set [1] and in data set [2] were 0.011 µg/mL (≈ 0.0202 µM) and 2.2 µg/mL (≈ 4.05 µM), respectively.
